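Five concentrations, 48 hours, 96-well plates. The concentration for 50% growth inhibition is given as GI50.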 Active and inactive are the calls of the source. No stated cut-off is given here; in the data, active = GI50 up to about 1.1 µM and inactive = higher.
Experiments:
Experiment in all cases: NCI tumour cell line growth inhibition, 48 h
HOP-62 = tested on: HOP-62
M19-MEL = tested on: M19-MEL
OVCAR-5 = tested on: OVCAR-5
NCI-H226 = tested on: NCI-H226
TK-10 = tested on: TK-10
COLO 205 = tested on: COLO 205
CAKI-1 = tested on: CAKI-1
UACC-257 = tested on: UACC-257
UO-31 = tested on: UO-31
HOP-92 = tested on: HOP-92
786-0 = tested on: 786-0
SNB-75 = tested on: SNB-75
HCT-15 = tested on: HCT-15
HCC 2998 = tested on: HCC 2998
T47D = tested on: T47D
Hs-578T = tested on: Hs-578T
DU-145 = tested on: DU-145
A498 = tested on: A498
MDA-MB-231 = tested on: MDA-MB-231
MDA-MB-435 = tested on: MDA-MB-435

| Structure (SMILES) | GI50 (HOP-62) | GI50 (M19-MEL) | GI50 (OVCAR-5) | GI50 (NCI-H226) | GI50 (TK-10) | GI50 (COLO 205) | GI50 (CAKI-1) | GI50 (UACC-257) | GI50 (UO-31) | GI50 (HOP-92) | GI50 (786-0) | GI50 (SNB-75) | GI50 (HCT-15) | GI50 (HCC 2998) | GI50 (T47D) | GI50 (Hs-578T) | GI50 (DU-145) | GI50 (A498) | GI50 (MDA-MB-231) | GI50 (MDA-MB-435) |
| --- | --- | --- | --- | --- | --- | --- | --- | --- | --- | --- | --- | --- | --- | --- | --- | --- | --- | --- | --- | --- |
| N#CC(NNC(=O)Cc1ccccc1)c1cccc(O)c1 (stereo not given) | > 100 µM (inactive) | > 100 µM (inactive) | > 100 µM (inactive) | > 100 µM (inactive) | > 100 µM (inactive) | > 100 µM (inactive) | > 100 µM (inactive) | > 100 µM (inactive) | > 100 µM (inactive) | > 100 µM (inactive) | > 100 µM (inactive) | > 100 µM (inactive) | > 100 µM |  |  |  |  |  |  |  |
| C[C@]12CCC3[C@@H](CCC45OC4C(=O)CC[C@]35C)C1Cc1cnn(-c3ccc(F)cc3)c1N2 (stereo not given in full) | 29.6 µM (inactive) | 34.3 µM (inactive) |  | 33.4 µM (inactive) | > 100 µM (inactive) | 40.5 µM (inactive) |  | 35.9 µM (inactive) | 87.9 µM (inactive) |  | 18.6 µM (inactive) | 38.6 µM (inactive) | 17.5 µM |  |  |  |  |  |  |  |
| COc1c(C(C)C)cc2c3c1OC(=O)[C@@]31CCCC(C)(C)C1CC2 (stereo not given in full) | 39.4 µM (inactive) | 23.6 µM (inactive) | 52.4 µM (inactive) | 4.92 µM (inactive) | 25.2 µM (inactive) | 17.3 µM (inactive) | > 100 µM (inactive) | 20.3 µM (inactive) | 11.7 µM (inactive) |  | 46.7 µM (inactive) | 22 µM (inactive) | 55.7 µM | 50.2 µM (inactive) |  |  |  |  |  |  |
| O=C(/C=C/c1ccsc1)c1ccco1 | 14.9 µM (inactive) |  | 17.1 µM (inactive) | 28.1 µM (inactive) | 20 µM (inactive) | 17.6 µM (inactive) | 6.85 µM (inactive) | 17.3 µM (inactive) | 8.87 µM (inactive) | 14.9 µM (inactive) | 12.1 µM (inactive) | 12.8 µM (inactive) | 7.24 µM | 12.2 µM (inactive) | 11.8 µM (inactive) | 9.4 µM (inactive) | 13.6 µM (inactive) | 5.41 µM (inactive) | 12.7 µM (inactive) | 20 µM (inactive) |
